Laboratory results: patent US20120142763A1, “NUCLEIC ACID DELIVERY COMPOSITIONS AND METHODS OF USE THEREOF” (THE REGENTS OF THE UNIVERSITY OF CALIFORNIA, priority 2009, published 2012)
Like-named read-outs stand apart in the source and are kept apart here.

What was measured:
[1] = Solubility of charge-protected oligonucleotide in salt solution; format: physicochemical
[2] = system: GFP

Substance: SEQ ID NO:23: RNAi against GFP comprising SEQ ID NO:23 having N1-U-SATE nucleotides; 21 mer charge-protected oligonucleotide (CCACUACCUGAGCACCCAGTTTUGGUGAUGGACUCGUGGGUC; contains N1-U-SATE charge-protected nucleotides, positions not given here)
- solubility in salt solution [1]: soluble in salt solution
- inhibition of expression of GFP (dose response curves) ([2]; at 24 hours): inhibition of expression of GFP
- inhibition of expression of GFP (dose response curves) ([2]; at 48 hours): inhibition of expression of GFP
